Structures are written as SMILES.

Data on 2 compounds can be found in patent EP3130339A1, “A COMPOUND FOR USE IN THE TREATMENT OF COMORBID ANXIETY DISORDER AND DEPRESSION DISORDER” (Aché Laboratórios Farmacêuticos S.A., priority 2015, dated 2017).

Type in all cases: in vivo
One series relates to mice (RJ:NMRI, males). Kind of series: Bright/dark box test (clear/dark transition test). The settings on record: for Time spent in the clear compartment compared to vehicle % / Time spent in the clear compartment (seconds) (mean ± mean standard error): 30 minutes before the test; for Time spent in the clear compartment (seconds) (mean ± mean standard error): three-minute test. The procedure:
This model, also known as clear/dark transition test, is characterized as a model of conflict, based on the natural tendency to explore new environments versus avoidance of doing so, due to the potential possibility of the presence of aversive stimuli. It is an animal model based on independent behavior of conditioning, therefore, there is no need of learning. In rodents, this model is grounded in their natural aversion to excessively clear environments. This aversion is measured from the ansiogenic component expressed by lower exposure of the animal to the clear compartment.
The method employed followed the procedure described by Crawley and Goodwin (Pharmacol. Biochem. Behav. 1981, 15, 695-699).
The animals were placed on the clear field of a box comprising two compartments, one being illuminate and open (25 x 27 x 27 cm) and the other being dark and close (20 x 27 x 27 cm). Data on the length of stay in each compartment were collected over the three-minute test.
This test aimed at obtaining a comparison profile of response of Compound (A) (3-(2-(-4-(2-methoxyphenyl)piperazin-1-yl)ethyl)quinazolin-4(3H)-one and Compound (B) 3-(2-(4-(2-cyanophenyl)piperazin-1-yl)ethyl)quinazolin-4(3H)-one with known compounds that act by different mechanisms. The comparative compounds were alprazolam (benzodiazepine), paroxetine (ISRS-type antidepressant), venlafaxine (IRSN-type antidepressant) and agomelatine (antidepressant that acts on melatonin and serotonin 5-HT2C receptor). The following doses were employed in this study: Table 1: Tested compounds, concentrations and route of administration.
In this blind study, ten mice (RJ:NMRI, males) were employed per group. Clobazam (12 mg/Kg, i.p. route) was administered under the same study conditions as the reference compound. All compounds were administered 30 minutes before the test.
The test data of the response of substances were analyzed comparing the groups treated with the control vehicle using one-way ANOVA followed by post-hoc analysis of Dunnett's test. The data of the reference substance obtained were analyzed using unpaired Student's t test.

Series [1] deals with Mice. Briefly: Sphere hiding test. The settings on record: for Number of Hidden Spheres (mean ± mean standard error): 25 glass spheres, counted at the end of 30 minutes. The procedure:
This test is based on the natural aversive behavior to glass and marble of rodents, where the presence of these objects triggers the action of burying (hiding). In this test, there are potential behavioral changes of medicines that may promote an ansiogenic or anxiolytic profile. This is determined by the increase or decrease of the behavior of hiding glass spheres ("marbles") that are randomly distributed on the surface of a box lined with sawdust. The increase of the number of covered balls is an indicative of anxiety, since it is supposed to represent a foreign agent to the animal, whose presence may pose threat. The administration of anxiolytics medicines decreases the number of spheres buried in non-sedative doses.
The method employed followed the procedure described by Broekkamp et al. (Eur. J. Pharmacol., 1986, 126, 223-229).
Mice were individually placed in transparent plastic cages (33 x 21 x 18 cm), with the floor covered by a 5 cm layer of sawdust and 25 glass spheres grouped in the center of the cage. The cage was covered with a perforated plastic cover. Each test cage, along with the glass spheres, were previously impregnated with "mouse odor", and a group of 10 mice was left inside for 15 minutes.
The number of glass spheres covered with sawdust (2/3 or more of the surface) was counted at the end of the 30 minutes of the test.
Each study group consisted of 12 mice. The test was partially blind (substances tested versus vehicle of the tested substances).
This test aimed at obtaining a comparison profile of response of Compound (A) (3-(2-(-4-(2-methoxyphenyl)piperazin-1-yl) ethyl) quinazolin-4 (3H) -one and Compound (B) (3-(2-(4-(2-cyanophenyl)piperazin-1-yl)ethyl)quinazolin-4(3H)-one) with known compounds that act by different mechanisms. The comparative compounds used were alprazolam (benzodiazepine) and paroxetine (ISRS-type antidepressant). These compounds were tested in the following doses: Table 3: Compounds tested, concentrations employed and route of administration.
Fluoxetine (ISRI antidepressant) was used as the positive control substance in the test, and was administered at 32 mg/kg (i.p.).
Quantitative data for the tested substances (number of glass spheres coated with sawdust) were evaluated by comparison with the treated groups using one-way ANOVA followed by planned comparisons against the appropriate vehicles. Data with fluoxetine were compared to the vehicle control using unpaired Student's t test.

Series [2] concerns Mice. Kind of series: Non-precipitated withdrawal test. The settings on record: mouse, in vivo, po. The text has this: This test aims at assessing how the sudden cessation of the administration of a medicine can be associated with the occurrence of withdrawal identifiable symptoms. The types of symptoms examined are feed changes, weight gain, body temperature and the occurrence of one or behavioral symptoms and others, such as tremor, teeth chattering, wet dog body-shaking, diarrhea or piloerection. The triggering of these signs is a first sign that the substance induces dependence after repeated administration.
The method employed followed the procedure described by Goudie and Leathley (Psychopharmacology 1991, 103: 529-537).
Two mice per cage received two administrations per day (approximately 10:00 hours and 16:00 hours) of the test substance continuously during 19 days (day 1 to day 19), with the last administration occurring next to 10:00 hours of the 20th day. Control animals received the same number of administrations of vehicle. […] During the discontinuation phase, all animals received administration of vehicle once a day.
Additionally to the observations made after discontinuing the medicines, the same measures were taken at day 1 and day 10 of treatment, in addition to the 3 last days (days 18 to 20) immediately prior to administration of the dose in the morning to assess the effects of medicines before discontinuation. After discontinuation, the first observation was performed 24 hours after the last administration and, from then on, every 24 hours (days 21 to 28).
For daily measurements, the animals were evaluated with respect to behavioral changes during 5 minutes (two animals simultaneously observed). Then, their body weights and rectal temperatures were measured. Then, they received the proper treatment and were returned to their cages.
The leftover food in their supporters was weighed immediately after all animals return to their cages (only in the mornings), and food consumption in the previous 24 hours was determined.
The body weights, feed consumption and rectal temperatures were also measured 24 hours before the first administration, as reference values. The treated groups were homogenized with regard to body weights on the day preceding the first administration of the tested substances.
Compound (A) (3-(2-(-4-(2-methoxyphenyl)piperazin-1-yl)ethyl)quinazolin-4 (3H)-one) was evaluated in 3 doses (3, 10 and 30 mg/kg) administered orally (p.o.) and compared to the vehicle (control group).
Chlordiazepoxide (64 mg/kg, p.o.) was administered under the same experimental conditions, and was employed as reference substance in the test.
Paroxetine (15 and 30 mg/kg p.o.) was administered under the same experimental conditions and was used as comparative substance.
The test was blinded. Data were analyzed by comparing substances with their control vehicles employing one-way ANOVA with the group as a factor followed by post-hoc Dunnett tests. Data with the reference substance were analyzed using unpaired Student's t test.

Where [3] appears, read: dose given in Table 4 as (4), i.p.
Setting [4] is: dose given in Table 4 as (8), i.p.

Consider `Fc1ccc([C@@H]2CCNC[C@H]2COc2ccc3c(c2)OCO3)cc1` [Paroxetine, paroxetine], for which, in the series with mice (RJ:NMRI, males) (4 mg/Kg i.p.), the “Time spent in the clear compartment compared to vehicle %” value (“Time spent … to vehicle %” below) is “+15%” and the “Time spent in the clear compartment (seconds) (mean ± mean standard error)” value (“Time spent … (mean ± mean standard error)” below) came out at 84.6 ± 7.4 s. Moreover, in the series with mice (RJ:NMRI, males) (8 mg/Kg i.p.), the “Time spent … to vehicle %” value was -6% and the “Time spent … (mean ± mean standard error)” value was found to be 69.3 ± 5.9 s. Also, in the series on mice (RJ:NMRI, males) (16 mg/Kg i.p.), the “Time spent … to vehicle %” value is -13% and the “Time spent … (mean ± mean standard error)” value was determined as 63.8 ± 8.2 s. In the series on Mice [1] (1.0 mg/kg i.p.), the “Number of Hidden Spheres Compared to vehicle control %” value is on record as -56% and the “Number of Hidden Spheres (mean ± mean standard error)” value is 8,4 ± 2,3. Besides, the “withdrawal syndrome after an extended administration regimen” value in the series on Mice [2] is recorded as “induces mild withdrawal syndrome”. In addition, in the series on Mice [2] (30 mg/kg), the “amount of food consumed” value is “significant increase in the amount of food consumed”; the “body weight and food consumption” value was “significantly induced weight loss and reduction of food consumption”.

Consider `COc1ccccc1N1CCN(CCn2cnc3ccccc3c2=O)CC1` [Compound (A), 3-(2-(-4-(2-methoxyphenyl)piperazin-1-yl)ethyl)quinazolin-4(3H)-one], for which the “Time spent … to vehicle %” value is given as “+8%” in the series with mice (RJ:NMRI, males) (4 mg/Kg i.p.); “+111%” in the series on mice (RJ:NMRI, males) (8 mg/Kg i.p.); “+93%” in the series on mice (RJ:NMRI, males) (16 mg/Kg i.p.). Moreover, the “Time spent … (mean ± mean standard error)” value in the series with mice (RJ:NMRI, males) (4 mg/Kg i.p.) was 79.6 ± 15.4 s; in the series on mice (RJ:NMRI, males) (8 mg/Kg i.p.), 155.1 ± 14.4 s; in the series with mice (RJ:NMRI, males) (16 mg/Kg i.p.), 141.7 ± 13.4 s. Further, the “permanence time in the clear compartment (result in words)” value with mice (RJ:NMRI, males) (summary of Table 2 over the doses tested, i.p.) is “efficient in extending the permanence time in the clear compartment”. Also, the results for the “Number of Hidden Spheres Compared to vehicle control %” value in the series on Mice [1] (setting [3]) and in the series on Mice [1] (setting [4]) were -82% and -98%, respectively. The “Number of Hidden Spheres (mean ± mean standard error)” value in the series on Mice [1] (setting [3]) is recorded as 3.5 ± 2.4; with Mice [1] (setting [4]), 0.3 ± 0.3. Moreover, the “number of hidden spheres (result in words)” value in the series on Mice [1] (summary of Table 4 over the doses tested, i.p.) is on record as “significantly reduced the number of hidden spheres”. The “withdrawal syndrome after an extended administration regimen” value with Mice [2] was “does not induce withdrawal syndrome”.
